Data reported in patent US20150011466A1, “APJ Receptor Compounds” (priority 2012, published 2015).
Read-outs that look alike come from different tables or passages of the source. Where a SMILES comes first, the peptide text is derived from it. [ ]: non-standard residue; d: D form. The star is where a group is joined. Palmitoyl = CCCCCCCCCCCCCCCC(=O)*; Aib = CC(C)(N)C(=O)O

Key:
APJ receptor = target: T1, APJ receptor (Homo sapiens, UniProt P35414); assay: HTRF cAMP assay, inhibition of NKH477 stimulated cAMP in Human TRex cells expressing APJ upon doxycycline induction (APJ-hTREX); type: cell-based; settings: for Ranking: class combining EC50 and % histamine; for percent intrinsic activity at 0.3 µM: read-out: % IA (@ 300 nM)
T1 construct: expressed in transfected cells; host or cells: Human TRex cells (doxycycline-inducible)
T1 sequence (P35414 1-380): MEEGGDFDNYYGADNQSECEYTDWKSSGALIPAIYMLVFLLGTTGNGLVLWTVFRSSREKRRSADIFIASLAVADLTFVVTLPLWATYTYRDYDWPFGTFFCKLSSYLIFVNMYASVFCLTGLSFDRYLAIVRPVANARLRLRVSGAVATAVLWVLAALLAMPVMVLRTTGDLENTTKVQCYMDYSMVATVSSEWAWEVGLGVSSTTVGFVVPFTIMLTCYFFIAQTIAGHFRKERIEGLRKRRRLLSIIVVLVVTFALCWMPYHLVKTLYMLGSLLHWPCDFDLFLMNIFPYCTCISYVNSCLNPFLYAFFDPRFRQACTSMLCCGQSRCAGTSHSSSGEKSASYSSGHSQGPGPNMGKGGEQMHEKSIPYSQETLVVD
Summary of the method: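 Cells stimulated with NKH477 and cAMP measured by HTRF competitive immunoassay (cryptate anti-cAMP antibody, d2-labeled cAMP). APJ-hTREX cells induced with […] doxycycline and seeded overnight at 40 k/well.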

[1] = inhibition of NKH477 stimulated cAMP, APJ-hTREX cells, read-out: APJ-hTREX EC50

| Histimine (% vs. 48/40) (Histimine (% vs. 48/40)) | percent intrinsic activity at 0.3 µM (APJ receptor) | EC50 (APJ receptor; [1]) | SMILES | EC50 (APJ receptor) | Ranking (APJ receptor) |
| --- | --- | --- | --- | --- | --- |
| 63% | 60% |  | CCCCCCCCCCCCCCCC(=O)N[C@H](C(=O)N[C@H](C(=O)N[C@@H](Cc1ccccc1)C(=O)N[C@@H](CCCNC(=N)N)C(=O)N[C@@H](CO)C(=O)N[C@@H](CO)C(=O)N[C@@H](CCC(=O)O)C(=O)N[C@H](CCCCN)C(=O)N[C@@H](CCCNC(=N)N)C(=O)N[C@@H](CCCNC(=N)N)C(=O)N1CCC[C@H]1C(=O)N[C@@H](C)C(=O)N[C@@H](CC(=O)O)C(=O)N[C@H](C(=O)N[C@@H](Cc1ccccc1)C(=O)N[C@H](C(N)=O)[C@@H](C)CC)[C@@H](C)CC)C(C)C)[C@@H](C)O [Compound 51] (Palmitoyl-TVFRSSE[dK]RRPADIFI-NH2) |  |  |
| 70% | 76% | 49.2 nM | CCCCCCCCCCCCCCCC(=O)N[C@H](C(=O)N[C@H](C(=O)N[C@@H](Cc1ccccc1)C(=O)N[C@@H](CCCNC(=N)N)C(=O)N[C@@H](CO)C(=O)N[C@@H](CO)C(=O)N[C@@H](CCC(=O)O)C(=O)N[C@H](CCCCN)C(=O)N[C@@H](CCCNC(=N)N)C(=O)N[C@@H](CCCNC(=N)N)C(=O)N[C@@H](CO)C(=O)N[C@@H](C)C(=O)N[C@@H](CC(=O)O)C(=O)N[C@H](C(=O)N[C@@H](Cc1ccccc1)C(=O)N[C@@H](Cc1ccccc1)C(N)=O)[C@@H](C)CC)C(C)C)[C@@H](C)O [Compound 6] (Palmitoyl-TVFRSSE[dK]RRSADIFF-NH2; C-terminus assumed) |  | *** (EC50<100 nM and % histamine>35%) |
| 103% | 77% |  | CCCCCCCCCCCCCCCC(=O)N[C@H](C(=O)N[C@H](C(=O)N[C@@H](Cc1ccccc1)C(=O)N[C@@H](CCCNC(=N)N)C(=O)N[C@@H](CO)C(=O)N[C@@H](CO)C(=O)N[C@@H](CCC(=O)O)C(=O)N[C@H](CCCCN)C(=O)N[C@@H](CCCNC(=N)N)C(=O)N[C@@H](CCCNC(=N)N)C(=O)N[C@@H](CO)C(=O)N[C@@H](Cc1c[nH]cn1)C(=O)N[C@@H](CC(=O)O)C(=O)N[C@H](C(=O)N[C@@H](Cc1ccccc1)C(=O)N[C@H](C(N)=O)[C@@H](C)CC)[C@@H](C)CC)C(C)C)[C@@H](C)O [Compound 15] (Palmitoyl-TVFRSSE[dK]RRSHDIFI-NH2) |  |  |
| 75% | 45% |  | CCCCCCCCCCCCCCCC(=O)N[C@H](C(=O)N[C@H](C(=O)N[C@@H](Cc1ccccc1)C(=O)N[C@@H](CCCNC(=N)N)C(=O)N[C@@H](CO)C(=O)N[C@@H](CO)C(=O)N[C@@H](CCC(=O)O)C(=O)N[C@H](CCCCN)C(=O)N[C@@H](CCCNC(=N)N)C(=O)N[C@@H](CCCNC(=N)N)C(=O)N[C@@H](CO)C(=O)N1CCC[C@H]1C(=O)N[C@@H](CC(=O)O)C(=O)N[C@H](C(=O)N[C@@H](Cc1ccccc1)C(=O)N[C@H](C(N)=O)[C@@H](C)CC)[C@@H](C)CC)C(C)C)[C@@H](C)O [Compound 52] (Palmitoyl-TVFRSSE[dK]RRSPDIFI-NH2) |  |  |
| 25% | 51% |  | CCCCCCCCCCCCCCCC(=O)N[C@H](C(=O)N[C@H](C(=O)N[C@@H](Cc1ccccc1)C(=O)N[C@@H](CCCNC(=N)N)C(=O)N[C@@H](CO)C(=O)N[C@@H](CO)C(=O)N[C@@H](CCC(=O)O)C(=O)N[C@H](CCCCN)C(=O)N[C@@H](CCCNC(=N)N)C(=O)NC(C)(C)C(=O)N[C@@H](CO)C(=O)N[C@@H](C)C(=O)N[C@@H](CC(=O)O)C(=O)N[C@H](C(=O)N[C@@H](Cc1ccccc1)C(=O)N[C@H](C(N)=O)[C@@H](C)CC)[C@@H](C)CC)C(C)C)[C@@H](C)O [Compound 62, TVFRSSEkR(Aib)SADIFI] (Palmitoyl-TVFRSSE[dK]R[Aib]SADIFI-NH2) |  |  |
| 19% | 47% | 173 nM | CCCCCCCCCCCCCCCC(=O)N[C@H](C(=O)N[C@H](C(=O)N[C@@H](Cc1ccccc1)C(=O)N[C@@H](CCCNC(=N)N)C(=O)N[C@@H](CO)C(=O)N[C@@H](CO)C(=O)N[C@@H](CCC(=O)O)C(=O)N[C@H](CCCCN)C(=O)N[C@@H](CCCNC(=N)N)C(=O)N[C@@H](CCCNC(=N)N)C(=O)N[C@@H](CO)C(=O)N[C@@H](C)C(=O)N[C@@H](CC(=O)O)C(=O)N[C@H](C(=O)NC(C)(C)C(=O)N[C@H](C(N)=O)[C@@H](C)CC)[C@@H](C)CC)C(C)C)[C@@H](C)O [Compound 66] (Palmitoyl-TVFRSSE[dK]RRSADI[Aib]I-NH2; C-terminus assumed) |  | **** (EC50 101-500 nM and % histamine<35%) |
| 16% | 41% |  | CCCCCCCCCCCCCCCC(=O)N[C@H](C(=O)N[C@H](C(=O)N[C@@H](Cc1ccccc1)C(=O)N[C@@H](CCCNC(=N)N)C(=O)N[C@@H](CO)C(=O)N[C@@H](CO)C(=O)N[C@@H](CCC(=O)O)C(=O)N[C@H](CCCCN)C(=O)N[C@@H](CCCNC(=N)N)C(=O)N1CCC[C@H]1C(=O)N[C@@H](CO)C(=O)N[C@@H](C)C(=O)N[C@@H](CC(=O)O)C(=O)N[C@H](C(=O)N[C@@H](Cc1ccccc1)C(=O)N[C@H](C(N)=O)[C@@H](C)CC)[C@@H](C)CC)C(C)C)[C@@H](C)O [Compound 50] (Palmitoyl-TVFRSSE[dK]RPSADIFI-NH2) |  |  |
| 48% | 60% |  | CCCCCCCCCCCCCCCC(=O)N[C@H](C(=O)N[C@H](C(=O)N[C@@H](Cc1ccccc1)C(=O)N[C@@H](CCCNC(=N)N)C(=O)N[C@@H](CO)C(=O)N[C@@H](CO)C(=O)N[C@@H](CCC(=O)O)C(=O)N[C@H](CCCCN)C(=O)N[C@@H](CCCNC(=N)N)C(=O)N[C@@H](CCCNC(=N)N)C(=O)N[C@@H](CO)C(=O)N[C@@H](C)C(=O)N[C@@H](CC(=O)O)C(=O)N[C@H](C(=O)N[C@@H](Cc1ccccc1)C(=O)N[C@@H](CC(=O)O)C(N)=O)[C@@H](C)CC)C(C)C)[C@@H](C)O [Compound 41] (Palmitoyl-TVFRSSE[dK]RRSADIFD-NH2) |  |  |
| 52% | 35% |  | CCCCCCCCCCCCCCCC(=O)N[C@H](C(=O)N[C@H](C(=O)N[C@@H](Cc1ccccc1)C(=O)N[C@@H](CCCNC(=N)N)C(=O)N[C@@H](CO)C(=O)N[C@@H](CO)C(=O)N[C@@H](CCC(=O)O)C(=O)N[C@H](CCCCN)C(=O)N[C@@H](CCCNC(=N)N)C(=O)N[C@@H](CCCNC(=N)N)C(=O)N[C@@H](CO)C(=O)N[C@@H](C)C(=O)N[C@@H](CC(=O)O)C(=O)N[C@H](C(=O)N[C@@H](Cc1ccccc1)C(=O)NCC(N)=O)[C@@H](C)CC)C(C)C)[C@@H](C)O [Compound 80] (Palmitoyl-TVFRSSE[dK]RRSADIFG-NH2) |  |  |

| SMILES | Histimine (% vs. 48/40) (Histimine (% vs. 48/40)) | percent intrinsic activity at 0.3 µM (APJ receptor) | EC50 (APJ receptor; [1]) | EC50 (APJ receptor) | Ranking (APJ receptor) |
| --- | --- | --- | --- | --- | --- |
| CCCCCCCCCCCCCCCC(=O)N[C@H](C(=O)N[C@H](C(=O)N[C@@H](Cc1ccccc1)C(=O)N[C@@H](CCCNC(=N)N)C(=O)N[C@@H](CO)C(=O)N[C@@H](Cc1c[nH]cn1)C(=O)N[C@@H](CCC(=O)O)C(=O)N[C@H](CCCCN)C(=O)N[C@@H](CCCNC(=N)N)C(=O)N[C@@H](CCCNC(=N)N)C(=O)N[C@@H](CO)C(=O)N[C@@H](C)C(=O)N[C@@H](CC(=O)O)C(=O)N[C@H](C(=O)N[C@@H](Cc1ccccc1)C(=O)N[C@H](C(N)=O)[C@@H](C)CC)[C@@H](C)CC)C(C)C)[C@@H](C)O [Compound 11] (Palmitoyl-TVFRSHE[dK]RRSADIFI-NH2; C-terminus assumed) | 38% | 68% |  | 65.1 nM | *** (EC50<100 nM and % histamine>35%) |
| CCCCCCCCCCCCCCCC(=O)N[C@H](C(=O)N[C@H](C(=O)N[C@@H](Cc1ccccc1)C(=O)NCC(=O)N[C@@H](CO)C(=O)N[C@@H](CO)C(=O)N[C@@H](CCC(=O)O)C(=O)N[C@H](CCCCN)C(=O)N[C@@H](CCCNC(=N)N)C(=O)N[C@@H](CCCNC(=N)N)C(=O)N[C@@H](CO)C(=O)N[C@@H](C)C(=O)N[C@@H](CC(=O)O)C(=O)N[C@H](C(=O)N[C@@H](Cc1ccccc1)C(=O)N[C@H](C(N)=O)[C@@H](C)CC)[C@@H](C)CC)C(C)C)[C@@H](C)O [Compound 71] (Palmitoyl-TVFGSSE[dK]RRSADIFI-NH2; C-terminus assumed) | 6% | 65% |  | 111 nM | **** (EC50 101-500 nM and % histamine<35%) |
| CCCCCCCCCCCCCCCC(=O)N[C@H](C(=O)N[C@H](C(=O)N[C@@H](Cc1ccccc1)C(=O)NC(C)(C)C(=O)N[C@@H](CO)C(=O)N[C@@H](CO)C(=O)N[C@@H](CCC(=O)O)C(=O)N[C@H](CCCCN)C(=O)N[C@@H](CCCNC(=N)N)C(=O)N[C@@H](CCCNC(=N)N)C(=O)N[C@@H](CO)C(=O)N[C@@H](C)C(=O)N[C@@H](CC(=O)O)C(=O)N[C@H](C(=O)N[C@@H](Cc1ccccc1)C(=O)N[C@H](C(N)=O)[C@@H](C)CC)[C@@H](C)CC)C(C)C)[C@@H](C)O [Compound 58] (Palmitoyl-TVF[Aib]SSE[dK]RRSADIFI-NH2; C-terminus assumed) | 11% | 54% |  | 10000 nM | * (EC50>500 nM and % histamine>35%) |
